{
  "source": "paper PMC10258454",
  "about": "(Nature, 2021)",
  "key": {"[1]": {"target": "T1, AcbK (Actinoplanes sp. SE50/110, UniProt Q8RMD4)", "assay": "X-ray crystallography, […] Å", "format": "binding", "details": "ATP site; MnCl2, acarbose present"}, "[2]": {"target": "T1, AcbK", "details": "2 mM ATP as phosphate donor, MgCl2, pH 8, 37 °C"}, "[3]": {"target": "T2, porcine pancreatic amylase (PPA) (Sus scrofa, UniProt P00690)", "T2 sequence (P00690 16-511)": "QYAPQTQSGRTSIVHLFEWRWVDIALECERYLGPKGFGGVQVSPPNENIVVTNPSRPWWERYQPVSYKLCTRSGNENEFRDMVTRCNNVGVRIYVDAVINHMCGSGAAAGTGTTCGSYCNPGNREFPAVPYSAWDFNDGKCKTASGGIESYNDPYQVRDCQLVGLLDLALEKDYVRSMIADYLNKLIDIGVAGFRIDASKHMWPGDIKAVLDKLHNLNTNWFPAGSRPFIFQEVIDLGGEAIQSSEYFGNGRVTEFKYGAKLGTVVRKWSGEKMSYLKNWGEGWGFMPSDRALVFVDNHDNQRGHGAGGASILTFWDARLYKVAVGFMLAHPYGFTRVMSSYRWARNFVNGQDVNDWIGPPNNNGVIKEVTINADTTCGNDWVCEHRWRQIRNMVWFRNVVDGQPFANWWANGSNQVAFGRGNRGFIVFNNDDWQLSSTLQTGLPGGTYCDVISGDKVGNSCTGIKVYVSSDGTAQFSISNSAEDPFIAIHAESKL", "assay": "colorimetric amylase assay, […] nm", "format": "biochemical", "details": "30 °C"}, "[4]": {"target": "T3, human salivary amylase (HSA) (Homo sapiens, UniProt P0DUB6)", "T3 sequence (P0DUB6 16-511)": "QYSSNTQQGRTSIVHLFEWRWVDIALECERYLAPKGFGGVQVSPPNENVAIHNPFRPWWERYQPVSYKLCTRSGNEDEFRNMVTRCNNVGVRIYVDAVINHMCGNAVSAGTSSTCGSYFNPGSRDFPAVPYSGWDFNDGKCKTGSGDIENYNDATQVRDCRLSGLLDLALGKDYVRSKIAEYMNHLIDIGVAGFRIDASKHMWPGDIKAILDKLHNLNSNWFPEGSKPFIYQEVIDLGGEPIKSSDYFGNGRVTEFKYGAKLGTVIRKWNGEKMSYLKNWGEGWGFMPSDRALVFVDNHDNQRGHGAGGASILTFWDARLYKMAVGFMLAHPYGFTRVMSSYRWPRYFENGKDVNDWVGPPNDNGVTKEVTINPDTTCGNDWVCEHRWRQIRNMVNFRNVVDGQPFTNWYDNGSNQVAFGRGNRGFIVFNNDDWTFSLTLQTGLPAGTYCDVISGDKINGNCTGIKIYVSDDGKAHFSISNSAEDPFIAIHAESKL", "assay": "colorimetric amylase assay, […] nm", "format": "biochemical", "details": "30 °C"}, "[5]": {"target": "the molecule itself", "assay": "crystal structure"}},
  "data": [
    {"molecule": "Nc1ncnc2c1ncn2[C@@H]1O[C@H](COP(=O)(O)OP(=O)(O)NP(=O)(O)O)[C@@H](O)[C@H]1O", "note": "[AMP-PNP]", "values": [
      {"measurement": "X-ray crystallography, 2.4 Å", "setting": "[1]", "value": "crystal structure of AcbK bound to acarbose and a non-hydrolysable ATP analogue, adenylyl-imidodiphosphate (AMP-PNP)"}
    ]},
    {"molecule": "Nc1ncnc2c1ncn2[C@@H]1O[C@H](COP(=O)(O)OP(=O)(O)OP(=O)(O)O)[C@@H](O)[C@H]1O", "note": "[ATP]", "values": [
      {"measurement": "HPLC-MS of acarbose phosphorylation", "setting": "[2]", "value": "we incubated the resulting proteins with ATP and acarbose"}
    ]},
    {"molecule": "CC1OC[C@H]2O[C@H](O[C@H]3[C@H](O)[C@@H](O)[C@@H](O[C@H]4[C@H](O)[C@@H](O)[C@@H](O[C@H]5[C@H](O)[C@@H](O)[C@@H](O[C@H]6[C@H](O)[C@@H](O)[C@@H](O[C@H]7[C@H](O)[C@@H](O)[C@@H](O[C@H]8[C@H](O)[C@@H](O)[C@@H](Oc9ccc([N+](=O)[O-])cc9)O[C@@H]8CO)O[C@@H]7CO)O[C@@H]6CO)O[C@@H]5CO)O[C@@H]4CO)O[C@@H]3CO)[C@H](O)[C@@H](O)[C@@H]2O1", "note": "(stereo partly drawn) [ethylidene-pNP-G7]", "values": [
      {"measurement": "colorimetric amylase assay, 405 nm", "setting": "[3]", "value": "cleavage of an oligosaccharide substrate mimic (ethylidene-pNP-G7)"},
      {"measurement": "colorimetric amylase assay, 405 nm", "setting": "[4]", "value": "cleavage of an oligosaccharide substrate mimic (ethylidene-pNP-G7)"}
    ]},
    {"molecule": "AcbK (acarbose kinase of Actinoplanes sp. SE50/110) (enzyme, UniProt Q8RMD4 1-299, looked up) MSEHTDVLVLGGAGVDTIAYVPELPLPFQDSYVVAAIEPRAGQTGDNVALGLHTLGLRTMHVDVLGDDPEGDLVRAFHTRHGLPFAALPTAAGTKRAVNLVGPDGRRLSLWDGSREAEEDRYPAALIAAHTAHARHVHVCITPPGQHVFGQLNDLPVTVSTDLHNWDGAYEGFEVYAFNADLVFLSATALTDVAATMRRVIDRGRARLVVATDGAHGGSVLVRGETEVRRYAAVAPEAPVVDSNGAGDAFVSGFLFGHLAGEPLETCLRYGAIAGAYACTIPATRAGAIDRAALLRPAA", "values": [
      {"measurement": "stoichiometry N", "setting": "[5]", "value": 2}
    ]},
    {"molecule": "Mak1 (microbiome-derived acarbose kinase 1) (enzyme) MTQADVLVVGGVGVDHIVRVKSLPLPVVDSMMVPPIVTVVGHTGNGVALGVHALGRASAMADVIGDDAEGRLIQDAYSAAGIPITFVTHISGTRRSVNLVTEEGQRMSLYDPRHPFEFIPDPSLWREGIERSRHVHVSIMNWARYALRDAVAAGRSTSTDLHDWDGVADYHKDFAYGADYVFVSAAALRDESGVVADVFARGRAQFVVVMAGSEGARVWRRSDELPLRISPISIPGRPVVDSNGAGDSFVAAFLCHYLDHGDIFGAARAGAVGGAWACGTLGTHTSFVDVETLERLLAR", "values": [
      {"measurement": "stoichiometry N", "setting": "[5]", "value": 2}
    ]}
  ]
}
